Test system: reactive oxygen species
Test: Reactive oxygen species in tBHP-challenged RAW cells (H2DCFA, flow cytometry)
Type: cell-based
Conditions: 100 nM for 18 hours, 250 μM tBHP for 15 minutes
Protocol: RAW264.7 cells were incubated with 10 and 100 nM of the synthetic triterpenoids for 18 hours, H2DCFA was then added for 30 minutes and the cells were challenged with 250 μM of tert-butyl hydroperoxide for 15 minutes to induce ROS. Mean fluorescence intensity of 50,000 cells was detected by flow cytometry. The results were obtained from three independent experiments.
The antioxidative activity of these compounds was explored as well. This experiment was based on the deacetylation and then oxidation of the non-fluorescent reagent 2′,7′-dichlorodihydrofluorescein diacetate (H2DCFA) to a fluorescent derivative. To study the effects of the TPs on oxidative stress, RAW cells were treated with 10-100 nM of the TPs for 18 hours. Cells were then incubated with 10 μM H2DCFA for […] and challenged with 250 μM of tert-butyl hydroperoxide (tBHP) for 15 minutes. The mean fluorescence intensity was measured by flow cytometry, using a 480 nm excitation wavelength and a 525 nm emission wavelength.

## COC(=O)[C@]12CCC(C)(C)C[C@H]1[C@H]1C(=O)C=C3[C@@]4(C)C=C(C#N)C(=O)C(C)(C)[C@@H]4CC[C@@]3(C)[C@]1(C)CC2 [CDDO-Me, bardoxolone methyl]
  protection against ROS at 100 nM compared with 10 nM: slightly better
